Measurements taken from US10028992B2, “Methods of treating muscular dystrophy” (BOARD OF REGENTS OF THE NEVADA SYSTEM OF HIGHER EDUCATION …, priority 2012, dated 2018).
pEC50: −log10 of the molar value. Where two headings read alike, the source gives them in different places.

Legend:
α7 integrin promoter = assay: muscle cell-based assay: α7βgal+/− myoblasts/myotubes, LacZ reporter, β-galactosidase cleavage of FDG; design: species or system mouse; settings: for pEC50: read-out: EC50; for Result in α7+/− β-galactosidase assay: Myoblasts
In short: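 Fluorescein generated from FDG by β-galactosidase reports α7 integrin promoter activity in differentiated myoblasts from α7+/− LacZ knock-in pups. Screening hits then went to dose-response, western blotting and a myostatin counterscreen.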

α7 integrin [1] = assay: western analysis of α7 integrin in DMD myoblasts/myotubes; type: cell-based, human; settings: 2,2-dipyridyl 31.25 μM, deferoxamine 5 and 10 μM, 132 hrs
Description: (§1) FIGS. 13A-13D illustrate western blot studies in which protein extracts from C2C12 (A, B) and DMD (C, D) myoblasts were first treated with PBS or 100 nM LAM-111 and then subjected to western analysis of the α7B integrin and the Cox-1 loading standard. *=p<0.05.
Protein was extracted from the cells and subjected to western blotting using antibodies against α7 integrin. α-tubulin was used as a loading control.
(§2) It is contemplated that the identified parent scaffolds (Tables 8 and 9) increase α7 integrin expression through a similar mechanism.

Mdx/utr−/− mice = assay: treatment of mdx/utr−/− mice; settings: mouse, in vivo
α7 integrin [2] = assay: western analysis of α7 integrin in C2C12 myoblasts/myotubes; type: cell-based, mouse; settings: C2C12 myotubes
Description: as §1
Bands were quantified using Image J software and then graphed as α7 Integrin protein levels relative to GAPDH protein levels. * denotes a significant difference in relative protein levels with **p<0.01.
The ability of laminin to regulate α7 integrin expression, α7βgal^+/− myoblasts were exposed to 0-200 nM laminin-111 for 24 hours. The activity of the α7 integrin promoter was measured by β-galactosidase cleavage of the non-fluorescent compound fluorescein di-β-D-galactopyranoside (FDG) to fluorescein. […] The ability of laminin-111 to increase α7 integrin expression was confirmed by western analysis using mouse and human DMD muscle cells (FIGS. 2A-2D).
as §2

Row | Compound | Optimal Concentration (α7 integrin promoter) | pEC50 (α7 integrin promoter) | α7 integrin protein (α7 integrin [1]) | Result in α7+/− β-galactosidase assay (α7 integrin promoter; 0.5 uM) | Result in α7+/− β-galactosidase assay (α7 integrin promoter; 1 uM) | Result in α7+/− β-galactosidase assay (α7 integrin promoter; 5 uM) | Result in α7+/− β-galactosidase assay (α7 integrin promoter; 10 uM) | Result in α7+/− β-galactosidase assay (α7 integrin promoter; 20 uM) | Result in α7+/− β-galactosidase assay (α7 integrin promoter; 40 uM) | further results
1 | c1ccc(-c2ccccn2)nc1 [2,2-Dipyridyl, 2,2-dipyridyl, reference compound] | 125 μm | 4.20 | increased |  |  |  |  |  |  | 
2 | CC(C)CCC[C@@H](C)[C@H]1CC[C@H]2[C@@H]3CC(=O)[C@H]4C[C@@H](O)CC[C@]4(C)[C@H]3CC[C@]12C [5α-cholestan-3β-ol-6-one, reference compound] | 20 μm | 5.22 | increased |  |  |  |  |  |  | EC100 (α7 integrin promoter): 20 µM
3 | CCCC(CCC)C(=O)O [Valproic acid, valproic acid] |  |  |  |  |  |  |  |  |  | pEC50 (α7 integrin promoter; Mus musculus, enhancement of α7 integrin expression in muscle cells): 3.30; Optimal Concentration (α7 integrin promoter; enhancement of α7 integrin expression in muscle cells): 2 mM; Akt signaling pathway in muscle (Mdx/utr−/− mice): activation; fibrosis (Mdx/utr−/− mice): reduced fibrosis; mobility (Mdx/utr−/− mice): improved mobility; muscle disease (Mdx/utr−/− mice; listed as Valproic Acid): reduced muscle disease; muscle disease (Mdx/utr−/− mice; listed as valproic acid): reduced overall muscle disease; α7 integrin protein (α7 integrin [2]): increased
4 | CCN(CC)CCNC(=O)c1c(C)[nH]c(CC2C(=O)Nc3ccc(F)cc32)c1C (stereo not drawn) [drawing 723] |  |  |  | 0.02287 | 0.01135 | −0.471 | −0.913 | −0.9852 | −0.9864 | 
5 | Cc1[nH]c(/C=C2\C(=O)Nc3ccc([S+](=O)([O-])Cc4c(Cl)cccc4Cl)cc32)c(C)c1C(=O)C1CCCN1CN1CCCC1 (stereo not drawn) [drawing 725] |  |  |  | 0.05199 | 0.07607 | −0.1295 | −0.4121 | −0.9816 | −0.9806 | 
6 | O=C1Nc2ccccc2/C1=C1/Nc2ccccc2/C1=N\O [drawing 726] |  |  |  | 0.07252 | 0.1204 | −0.1537 | −0.432 | −0.6932 | −0.758 | 
